Laboratory results: patent US8344010B2, “Fused imidazole derivatives as TRPV3 antagonist” (Glenmark Pharmaceuticals S.A., priority 2008, dated 2013)

Molecular target: T1, Human TRPV3 (Homo sapiens, UniProt Q8NET8)
T1 construct: expressed in transfected cells; host or cells: CHO cells (selected with G-418)
T1 sequence (Q8NET8 1-790): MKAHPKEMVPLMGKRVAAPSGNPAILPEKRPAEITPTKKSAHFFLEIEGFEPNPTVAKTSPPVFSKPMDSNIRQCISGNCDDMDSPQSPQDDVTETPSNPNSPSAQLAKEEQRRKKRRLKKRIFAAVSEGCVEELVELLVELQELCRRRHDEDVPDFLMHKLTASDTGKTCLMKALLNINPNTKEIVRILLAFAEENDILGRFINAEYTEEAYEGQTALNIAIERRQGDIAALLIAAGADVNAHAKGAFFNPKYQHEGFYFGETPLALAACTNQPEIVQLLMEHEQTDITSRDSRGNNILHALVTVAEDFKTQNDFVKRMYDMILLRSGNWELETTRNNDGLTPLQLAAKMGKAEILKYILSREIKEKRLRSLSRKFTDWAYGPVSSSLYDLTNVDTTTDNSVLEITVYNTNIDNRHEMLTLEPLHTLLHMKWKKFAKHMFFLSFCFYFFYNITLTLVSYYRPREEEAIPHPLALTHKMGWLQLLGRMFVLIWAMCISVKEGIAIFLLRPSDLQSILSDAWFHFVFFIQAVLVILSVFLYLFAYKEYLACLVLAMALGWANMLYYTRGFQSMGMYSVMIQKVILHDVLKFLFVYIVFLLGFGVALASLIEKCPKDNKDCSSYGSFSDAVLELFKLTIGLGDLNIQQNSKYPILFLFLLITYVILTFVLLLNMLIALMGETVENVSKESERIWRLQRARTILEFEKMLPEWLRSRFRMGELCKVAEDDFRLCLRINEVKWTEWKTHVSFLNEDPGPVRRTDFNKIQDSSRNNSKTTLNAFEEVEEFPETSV
Test: 45Calcium uptake assay: inhibition of 2-APB induced cellular uptake of radioactive calcium
Type: cell-based
Conditions: human TRPV3 expressing CHO cells, 2-APB 500 μM; for inhibition at 1 µM: 1 μM test compound, read-out: Percentage Inhibition (1 μM); for inhibition at 10 µM: 10 μM test compound, read-out: Percentage Inhibition (10 μM); for IC50: class symbol
How it was run: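 CHO cells expressing human TRPV3 were preincubated with compound for 10 min (0.5% DMSO final), then given 500 μM 2-APB plus 5 μCi/ml 45Ca2+ for 4 min. Lysate radioactivity was counted by scintillation; responses as % of maximal without antagonist, with IC50 by nonlinear regression.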

| Compound | inhibition at 1 µM [%] | inhibition at 10 µM [%] | IC50 [nM] |
| --- | --- | --- | --- |
| COc1cccc(/C=C/c2nc3cc(F)c(F)cc3n2-c2ccc(C#N)cn2)c1O [Example 69, 6-{5,6-Difluoro-2-[(E)-2-(2-hydroxy-3-methoxyphenyl)vinyl]-1H-benzimidazol-1-yl}nicotinonitrile] | 32.7 | 95.5 | – |
| CCCCOc1c(/C=C/c2nc3ccccc3n2-c2ccc(C(F)(F)F)cn2)cccc1OC [Example 85, 2-[(E)-2-(2-butoxy-3-methoxyphenyl)vinyl]-1-(5-trifluoromethylpyridin-2-yl)-1H-benzimidazole] | 71.1 | 90.2 | 100 to 500 |
| COc1cccc(/C=C/c2nc3ccccc3n2-c2ccc(C#N)cc2)c1OCc1ccccc1 [Example 34, 4-{2-[(E)-2-(2-Benzyloxy-3-methoxyphenyl)vinyl]-1H-benzimidazol-1-yl}benzonitrile] | 69.9 | 86.8 | > 500 |
| COc1cccc(/C=C/c2nc3ccccc3n2-c2ncccc2C(F)(F)F)c1OC1CCCC1 [Example 24, 2-[(E)-2-(2-Cyclopentyloxy-3-methoxyphenyl)vinyl]-1-[3-(trifluoromethyl)pyridin-2-yl]-1H-benzimidazole] | 84.7 | 98 | > 500 |
| COc1cccc(/C=C/c2nc3ccccc3n2-c2ncccc2C#N)c1OC1CCCC1 [Example 7, 2-{2-[(E)-2-(2-Cyclopentyloxy-3-methoxyphenyl)vinyl]-1H-benzimidazol-1-yl}nicotinonitrile] | 6.4 | 92.8 | – |

Second part, the molecule after the results:

| inhibition at 1 µM [%] | inhibition at 10 µM [%] | IC50 [nM] | Compound |
| --- | --- | --- | --- |
| 95.9 | 100 | 100 to 500 | N#Cc1ccc(-n2c(/C=C/c3cccc(OC(F)F)c3OC3CCCC3)nc3cccnc32)nc1 [Example 98, 6-(2-{(E)-2-[2-(Cyclopentyloxy)-3-difluoromethoxyphenyl]vinyl}-3H-imidazo[4,5-b]pyridin-3-yl)nicotinonitrile] |
| 98.4 | 99.3 | < 50 | N#Cc1ccc(-n2c(/C=C/c3cccc(OC(F)F)c3OC3CCCC3)nc3cc(F)c(F)cc32)nc1 [Example 84, 6-(2-{(E)-2-[2-(Cyclopentyloxy)-3-difluoromethoxyphenyl-]vinyl}-5,6-difluoro-1H-benzimidazol-1-yl)nicotinonitrile] |
| 96.7 | 97.7 | < 50 | N#Cc1ccc(-n2c(/C=C/c3cccc(OC(F)F)c3OCC3CCC3)nc3cc(F)c(F)cc32)nc1 [Example 83, 6-(2-{(E)-2-[2-(Cyclobutylmethoxy)-3-difluoromethoxyphenyl]vinyl}-5,6-difluoro-1H-benzimidazol-1-yl)nicotinonitrile] |
| 96 | 99.2 | 50 to 100 | N#Cc1ccc(-n2c(/C=C/c3cccc(OC(F)F)c3OCC3CCC3)nc3cccnc32)nc1 [Example 97, 6-(2-{(E)-2-[2-(Cyclobutylmethoxy)-3-difluoromethoxyphenyl]vinyl}-3H-imidazo[4,5-b]pyridin-3-yl)nicotinonitrile] |
| 90.7 | 95.7 | < 50 | CCCCCOc1c(/C=C/c2nc3c(F)c(F)c(F)cc3n2-c2ccc(C#N)cn2)cccc1OC [Example 81, 6-{2-[(E)-2-(2-pentyloxy-3-methoxyphenyl)vinyl]-4,5,6-trifluoro-1H-benzimidazol-1-yl}nicotinonitrile] |
